Experimental data taken from publication PMC4216111, “The Bile Acid-Sensitive Ion Channel (BASIC) Is Activated by Alterations of Its Membrane Environment” (PLoS ONE, 2014).
Read-outs that look alike come from different tables or passages of the source.

What was measured:
[1] = Solubility in bath solution; type: physicochemical; details: read-out: solubility limit
[2] = biological target: T1, rat BASIC (Rattus norvegicus, UniProt Q9R0W5); assay: Two-electrode voltage clamp, Xenopus laevis oocytes expressing rat BASIC; details: for IC50: read-out: IC50 of BASIC inhibition
T1 sequence (Q9R0W5 1-495): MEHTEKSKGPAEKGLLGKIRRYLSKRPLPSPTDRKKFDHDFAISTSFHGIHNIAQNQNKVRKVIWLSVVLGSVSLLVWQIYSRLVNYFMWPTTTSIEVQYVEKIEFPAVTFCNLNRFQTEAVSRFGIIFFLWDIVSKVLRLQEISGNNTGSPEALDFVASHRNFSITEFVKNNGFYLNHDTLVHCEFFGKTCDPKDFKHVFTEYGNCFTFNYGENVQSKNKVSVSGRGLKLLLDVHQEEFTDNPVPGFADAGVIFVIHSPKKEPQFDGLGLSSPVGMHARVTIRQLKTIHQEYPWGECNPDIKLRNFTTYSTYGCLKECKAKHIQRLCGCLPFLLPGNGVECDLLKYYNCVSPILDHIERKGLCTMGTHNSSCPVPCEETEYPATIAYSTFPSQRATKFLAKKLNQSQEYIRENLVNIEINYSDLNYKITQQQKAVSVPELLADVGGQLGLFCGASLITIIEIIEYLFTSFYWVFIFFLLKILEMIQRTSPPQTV

[3] = tested on: mouse BASIC; assay: Two-electrode voltage clamp, oocytes expressing mouse BASIC
[4] = biological target: T1, rat BASIC; design: expressed in transfected cells; host or cells: Xenopus laevis oocytes injected with cRNA; details: cited from earlier work
[5] = tested on: T2, mouse BASIC; design: method as in PMID 21828194; details: cited from earlier work
T2 construct: expressed in transfected cells; host or cells: Xenopus laevis oocytes injected with cRNA

[6] = tested on: human BASIC; design: method as in PMID 21828194; details: cited from earlier work
[7] = tested on: non-injected oocytes; assay: Two-electrode voltage clamp, non-injected control oocytes
[8] = tested on: rat ASIC1a; assay: Two-electrode voltage clamp, oocytes expressing rat ASIC1a; details: 400 µM SDS, 500 µM NL, 100 µM Triton-X 100, 2 mM UDCA
[9] = tested on: Hydra Na^+ Channel (HyNaC) 2/3/5; assay: Two-electrode voltage clamp, oocytes expressing HyNaC2/3/5; type: cell-based; details: 400 µM SDS, 500 µM NL, 100 µM Triton-X 100, 5 µM RFamide I
[10] = tested on: rBASIC-rASIC1a-loop; assay: Two-electrode voltage clamp, chimera rBASIC-rASIC1a-loop; type: cell-based, rat; details: 2 mM UDCA
From the text: (§1) Clones for rat BASIC (accession No. NM_022227), mouse BASIC (accession No. NM_021370), rat ASIC1a (accession No. NM_024154) and HyNaC 2, 3 and 5 (accession No. AM393878, AM393880 and FN257513) were described previously, [15], [16]. Chimeras between BASIC and ASIC1a were generated by overlap PCR and PCR fragments were cloned into the expression vector pRSSP6009 [15] using the In-Fusion cloning kit (Invitrogen, Germany). Sequences were confirmed by sequencing. Plasmid DNAs were linearized using the restriction endonucleases MluI or NaeI. cRNA was synthesized from linearized plasmids using the SP6 mMessage mMachine kit (Ambion, USA).
(§2) Chemicals were purchased from Sigma or Merck.

[11] = tested on: rASIC1a-rBASIC-loop 1, - 2 and -3; assay: Two-electrode voltage clamp, chimeras rASIC1a-rBASIC-loop 1, -2 and -3; type: cell-based, rat; details: 2 mM UDCA
From the text: as §1, §2

[12] = tested on: rASIC1a-rBASIC-TM1, -TM2 or -TM; assay: Two-electrode voltage clamp, chimeras rASIC1a-rBASIC-TM1, -TM2 or -TM; type: cell-based, rat; details: 2 mM UDCA
From the text: as §1, §2

[13] = tested on: rASIC1a rBASIC loop 1–2, rASIC1a rBASIC loop 2–3; assay: Two-electrode voltage clamp, chimeras rASIC1a rBASIC loop 1–2 and loop 2–3; type: cell-based, rat; details: 2 mM UDCA
From the text: as §1, §2

[14] = tested on: rASIC1a-rBASIC-loop; assay: Two-electrode voltage clamp, chimera rASIC1a-rBASIC-loop; type: cell-based, rat; details: 2 mM UDCA
From the text: as §1, §2

[15] = 2 mM UDCA, 500 µM CPZ, 10 mM TNP, 100 µM Triton-X 100, 500 µM NL, 400 µM SDS, n = 8
[16] = 400 µM SDS, 500 µM N-lauroylsarcosine, 100 µM Triton-X 100, n = 7
[17] = 400 µM SDS, 500 µM NL, 100 µM Triton-X 100, n = 8

Compound: CN(C)CCCN1c2ccccc2Sc2ccc(Cl)cc21 [CPZ, chlorpromazine]
- solubility [1]: ≤ 500 µM
- decrease of the response of BASIC to 2 mM UDCA ([2]; 0.5 mM CPZ co-applied with 2 mM UDCA): 2.0 fold
- activity of mouse BASIC, normalized to the amiloride-sensitive current [3, 15]: 0.95 fold

Compound: O=C(O)c1ccccc1Nc1cccc(C(F)(F)F)c1 [FFA, flufenamic acid]
- activation of rat BASIC [4]: activated
- effect on mouse BASIC [5]: not affected
- activation of human BASIC [6]: activated

Compound: [Gd+3] [Gd^3+, gadolinium]
- response of non-injected control oocytes [7]: did not respond
- effect on UDCA-dependent activation of BASIC ([2]; 100 µM Gd^3+ co-applied with 2 mM UDCA): completely abolished
- IC50 ([2]; in the absence of UDCA (resting state), n = 8): 102 ± 34 µM
- IC50 ([2]; in the presence of 2 mM UDCA, n = 8): 19 ± 7 µM

Compound: CCCCCCCCCCCC(=O)N(C)CC(=O)O [NL, N-lauroylsarcosine]
- activation of ASIC1a [8]: not activated
- current in un-injected oocytes [7, 16]: 35±0.8 nA
- increase of the low-activity (DIMI-sensitive) BASIC currents [2, 17]: 3 fold
- effect on currents when applied in the presence of diminazene ([2]; co-applied with diminazene): did not increase currents
- activity of mouse BASIC, normalized to the amiloride-sensitive current [3, 15]: 1.5 fold
- activation of HyNaC 2/3/5 [9]: not activated

Compound: CCCCCCCCCCCCOS(=O)(=O)[O-].[Na+] [SDS]
- activation of ASIC1a [8]: not activated
- current in un-injected oocytes [7, 16]: 34±0.6 nA
- increase of the low-activity (DIMI-sensitive) BASIC currents [2, 17]: 2 fold
- effect on currents when applied in the presence of diminazene ([2]; co-applied with diminazene): did not increase currents
- activity of mouse BASIC, normalized to the amiloride-sensitive current [3, 15]: 1.5 fold
- activation of HyNaC 2/3/5 [9]: not activated

Compound: C[C@H](CCC(=O)NCCS(=O)(=O)O)[C@H]1CC[C@H]2[C@@H]3[C@@H](O)C[C@@H]4C[C@H](O)CC[C@]4(C)[C@H]3CC[C@]12C [UDCA, tauroursodeoxycholic acid]
- response to UDCA of chimera rBASIC-rASIC1a-loop compared to removal of divalent cations [10]: extremely weak
- activation of ASIC1a [8]: not activate ASIC1a
- response to UDCA of chimeras rASIC1a-rBASIC-loop 1, -2 and -3 [11]: responded weakly to UDCA
- activation by UDCA of chimeras rASIC1a-rBASIC-TM1, -TM2, -TM [12]: activated by UDCA
- EC50 [2]: 2700 ± 60 µM
- activation of BASIC ([2]; 2 mM UDCA): strongly activated BASIC
- maximum current at 5 mM UDCA ([2]; 5 mM UDCA, n = 10): 23.8±2.4 µA
- activity of mouse BASIC, normalized to the amiloride-sensitive current [3, 15]: 1.3 fold
- activation by UDCA of chimeras loop 1–2 and loop 2–3 [13]: weakly activated by UDCA
- UDCA sensitivity of chimera rASIC1a-rBASIC-loop [14]: weakly sensitive to UDCA

Compound: CC(C)CCC[C@@H](C)[C@H]1CC[C@H]2[C@@H]3CC=C4C[C@@H](O)CC[C@]4(C)[C@H]3CC[C@]12C [cholesterol]
- effect of cholesterol application on rBASIC dependent current ([2]; 2 mM MβCD-balanced water-soluble cholesterol, 10 sec): did not affect the rBASIC dependent current

Compound: N=C(N)c1ccc(/N=N/Nc2ccc(C(=N)N)cc2)cc1 [diminazene]
- effect of diminazene on BASIC currents ([2]; 100 µM DIMI alone or together with SDS, NL or Triton-X 100): inhibited BASIC currents
- DIMI-sensitive current in the absence of stimulatory substances ([2]; n = 8): 0.25±0.03 µA

Compound: MβCD
- effect of cholesterol removal on rBASIC activity ([2]; 20 mM MβCD, approximately 2 h, control, −Ca^2+ and 2 mM UDCA): does not influence rBASIC activity

Compound: Triton-X 100
- activation of ASIC1a [8]: not activated
- current in un-injected oocytes [7]: 35±0.8 nA
- effect on currents when applied in the presence of diminazene [2]: inhibited by diminazene
- increase of the low-activity (DIMI-sensitive) BASIC currents [2]: 1.5 fold
- activity of mouse BASIC, normalized to the amiloride-sensitive current [3]: 1.2 fold
- activation of HyNaC 2/3/5 [9]: not activated
